Measurements taken from ChEMBL document CHEMBL1149074, “Eusynstyelamide, a highly modified dimer peptide from the ascidian Eusynstyela misakiensis” (J Nat Prod, 1994).

Tested on: HCT-116
Experiment: Cytotoxicity against human HCT116 cells upto 100 ug/ml after 72 hrs by XTT assay
Type: functional, cell-based

Q: With N=C(N)NCCCCNC(=O)C(O)(O)C(c1c[nH]c2cc(Br)ccc12)C(O)(Cc1c[nH]c2cc(Br)ccc12)C(=O)NCCCCNC(=N)N (stereo unspecified) as the molecule, how does the Activity read?
A: Not toxic
